Blank lines part the entries; values can stand above or below the compound they belong to. Active and inactive are the calls of the source.
Assays:
Cytochrome P450 2C9 = Cytochrome P450 2C9 (Homo sapiens, UniProt P11712); conditions: Potency
[1] = target: T1, Sentrin-specific protease 7 (Homo sapiens, UniProt Q9BQF6); type: functional;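 also: Luminescence-based dose-response confirmation of ultra-high-throughput screening hits, measuring inhibition of SENP7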
T1 sequence (Q9BQF6 whole entry): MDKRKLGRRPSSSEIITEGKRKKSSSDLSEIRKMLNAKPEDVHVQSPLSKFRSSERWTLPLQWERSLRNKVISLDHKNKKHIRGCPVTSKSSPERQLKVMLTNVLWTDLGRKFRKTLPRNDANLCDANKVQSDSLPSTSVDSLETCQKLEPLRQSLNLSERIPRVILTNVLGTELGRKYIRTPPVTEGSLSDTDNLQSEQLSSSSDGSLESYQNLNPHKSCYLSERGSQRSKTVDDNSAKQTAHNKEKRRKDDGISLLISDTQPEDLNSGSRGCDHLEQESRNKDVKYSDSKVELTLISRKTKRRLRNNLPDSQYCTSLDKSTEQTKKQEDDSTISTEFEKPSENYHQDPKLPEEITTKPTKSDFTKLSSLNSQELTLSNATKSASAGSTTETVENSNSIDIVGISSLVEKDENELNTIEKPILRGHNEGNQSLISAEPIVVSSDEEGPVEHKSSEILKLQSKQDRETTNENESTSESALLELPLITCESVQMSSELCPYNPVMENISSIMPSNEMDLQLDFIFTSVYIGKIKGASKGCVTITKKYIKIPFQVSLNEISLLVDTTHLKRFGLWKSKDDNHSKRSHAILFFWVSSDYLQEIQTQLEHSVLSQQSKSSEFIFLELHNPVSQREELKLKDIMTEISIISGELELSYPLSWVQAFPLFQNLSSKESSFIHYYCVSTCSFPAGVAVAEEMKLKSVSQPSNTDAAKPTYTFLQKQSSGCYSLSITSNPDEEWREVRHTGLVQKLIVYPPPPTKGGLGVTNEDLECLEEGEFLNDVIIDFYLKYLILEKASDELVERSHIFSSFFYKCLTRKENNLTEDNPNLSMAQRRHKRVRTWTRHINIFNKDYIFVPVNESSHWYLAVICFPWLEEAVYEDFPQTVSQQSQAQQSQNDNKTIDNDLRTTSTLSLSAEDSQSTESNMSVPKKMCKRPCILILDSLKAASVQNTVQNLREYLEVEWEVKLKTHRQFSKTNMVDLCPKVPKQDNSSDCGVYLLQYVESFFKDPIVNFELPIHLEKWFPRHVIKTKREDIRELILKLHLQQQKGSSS

Caspase-3 = target: T2, Caspase-3 (Homo sapiens, UniProt P42574); type: functional;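 also: Dose-response selectivity test against caspase-3 for candidate inhibitors of sentrin-specific proteases (SENPs)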
T2 sequence (P42574 whole entry): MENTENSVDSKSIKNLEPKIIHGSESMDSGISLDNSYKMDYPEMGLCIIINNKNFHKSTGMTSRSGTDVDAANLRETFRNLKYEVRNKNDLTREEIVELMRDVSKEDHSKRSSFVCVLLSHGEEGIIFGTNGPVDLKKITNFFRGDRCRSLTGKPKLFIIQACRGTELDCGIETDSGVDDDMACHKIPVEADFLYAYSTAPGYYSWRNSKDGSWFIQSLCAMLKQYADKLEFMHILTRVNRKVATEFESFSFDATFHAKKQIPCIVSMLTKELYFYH

[2] = target: T3, Sentrin-specific protease 6 (Homo sapiens, UniProt Q9GZR1); type: functional;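 also: Luminescence-based dose-response confirmatory assay of SENP6 inhibition, following up an ultra-high-throughput screen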
T3 sequence (Q9GZR1 whole entry): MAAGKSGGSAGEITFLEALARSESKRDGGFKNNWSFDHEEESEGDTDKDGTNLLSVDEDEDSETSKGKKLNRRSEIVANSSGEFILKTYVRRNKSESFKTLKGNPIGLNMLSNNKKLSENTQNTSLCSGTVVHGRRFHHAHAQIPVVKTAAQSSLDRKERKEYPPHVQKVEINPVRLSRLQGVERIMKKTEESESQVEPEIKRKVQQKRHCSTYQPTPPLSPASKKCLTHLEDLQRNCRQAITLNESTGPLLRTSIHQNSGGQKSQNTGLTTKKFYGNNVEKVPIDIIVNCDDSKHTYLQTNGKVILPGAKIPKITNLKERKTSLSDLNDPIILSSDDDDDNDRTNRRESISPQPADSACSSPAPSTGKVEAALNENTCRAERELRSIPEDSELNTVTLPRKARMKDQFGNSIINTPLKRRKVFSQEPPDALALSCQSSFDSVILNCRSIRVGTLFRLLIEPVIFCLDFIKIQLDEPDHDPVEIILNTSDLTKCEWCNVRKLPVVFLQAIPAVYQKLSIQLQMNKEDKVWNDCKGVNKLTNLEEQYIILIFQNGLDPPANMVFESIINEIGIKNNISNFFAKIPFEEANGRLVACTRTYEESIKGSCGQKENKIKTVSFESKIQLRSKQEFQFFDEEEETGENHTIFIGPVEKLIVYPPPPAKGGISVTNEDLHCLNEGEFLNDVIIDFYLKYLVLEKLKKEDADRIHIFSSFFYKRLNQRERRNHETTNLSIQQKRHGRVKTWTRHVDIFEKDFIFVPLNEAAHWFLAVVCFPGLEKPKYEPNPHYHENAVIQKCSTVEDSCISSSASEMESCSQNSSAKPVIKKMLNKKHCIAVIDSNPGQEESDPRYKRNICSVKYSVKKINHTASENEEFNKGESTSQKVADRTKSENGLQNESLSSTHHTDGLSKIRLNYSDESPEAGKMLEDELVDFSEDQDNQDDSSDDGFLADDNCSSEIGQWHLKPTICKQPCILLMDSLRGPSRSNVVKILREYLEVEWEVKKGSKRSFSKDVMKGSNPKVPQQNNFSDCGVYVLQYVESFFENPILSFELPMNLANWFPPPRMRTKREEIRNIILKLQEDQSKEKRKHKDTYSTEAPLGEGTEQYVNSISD

[3] = target: T4, Sentrin-specific protease 8 (Homo sapiens, UniProt Q96LD8); type: functional;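 also: luminescence read-out of SENP8 inhibition, dose-response confirmation following an ultra-high-throughput screen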
T4 sequence (Q96LD8 whole entry): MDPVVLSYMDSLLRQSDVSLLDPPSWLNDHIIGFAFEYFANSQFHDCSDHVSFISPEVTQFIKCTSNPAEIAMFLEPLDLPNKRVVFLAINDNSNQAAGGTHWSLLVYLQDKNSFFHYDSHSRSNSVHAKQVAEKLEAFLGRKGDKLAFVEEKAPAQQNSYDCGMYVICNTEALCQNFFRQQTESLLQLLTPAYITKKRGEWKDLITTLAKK

[4] = target: T5, Corticotropin-releasing factor receptor 2/Corticotropin-releasing factor-binding protein (Homo sapiens, UniProt P24387+Q13324); experiment: activators of CRF receptor 2 with binding protein – uHTS hits, confirmation (AID 602473); type: functional; conditions: read-out: EC50_Mean
T5 sequence (Q13324 whole entry): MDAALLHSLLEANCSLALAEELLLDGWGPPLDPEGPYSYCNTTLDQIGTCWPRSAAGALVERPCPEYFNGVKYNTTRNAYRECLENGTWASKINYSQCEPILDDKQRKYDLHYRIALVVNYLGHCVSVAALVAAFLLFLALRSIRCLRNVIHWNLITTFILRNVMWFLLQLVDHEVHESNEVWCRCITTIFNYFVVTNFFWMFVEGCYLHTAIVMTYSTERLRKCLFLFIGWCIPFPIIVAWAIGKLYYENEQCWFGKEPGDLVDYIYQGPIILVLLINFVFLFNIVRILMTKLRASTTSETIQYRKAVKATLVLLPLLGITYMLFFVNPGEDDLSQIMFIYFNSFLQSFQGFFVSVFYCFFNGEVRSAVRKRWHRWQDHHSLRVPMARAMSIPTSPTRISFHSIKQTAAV
T5 sequence (P24387 whole entry): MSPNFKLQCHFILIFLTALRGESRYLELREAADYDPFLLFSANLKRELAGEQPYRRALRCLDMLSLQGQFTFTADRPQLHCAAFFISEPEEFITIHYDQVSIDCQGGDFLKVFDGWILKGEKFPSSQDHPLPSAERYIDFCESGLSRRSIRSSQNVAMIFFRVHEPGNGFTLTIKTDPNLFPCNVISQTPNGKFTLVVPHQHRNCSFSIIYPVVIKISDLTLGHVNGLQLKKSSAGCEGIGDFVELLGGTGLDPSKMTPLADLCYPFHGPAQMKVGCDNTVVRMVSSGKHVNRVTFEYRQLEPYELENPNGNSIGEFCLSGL

[5] = target: T5, Corticotropin-releasing factor receptor 2/Corticotropin-releasing factor-binding protein; experiment: Dose Response confirmation of uHTS hits for small molecule antagonists of the CRF-binding protein and CRF-R2 receptor complex.; type: functional; conditions: read-out: IC50_Mean
[6] = target: Voltage-dependent T-type calcium channel subunit alpha-1H (Homo sapiens, UniProt O95180); type: functional;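 also: channel activity triggered by adding a high calcium stimulation buffer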
Voltage-dependent T-type calcium channel subunit alpha-1H, sequence (O95180 whole entry, the tested form may be a part): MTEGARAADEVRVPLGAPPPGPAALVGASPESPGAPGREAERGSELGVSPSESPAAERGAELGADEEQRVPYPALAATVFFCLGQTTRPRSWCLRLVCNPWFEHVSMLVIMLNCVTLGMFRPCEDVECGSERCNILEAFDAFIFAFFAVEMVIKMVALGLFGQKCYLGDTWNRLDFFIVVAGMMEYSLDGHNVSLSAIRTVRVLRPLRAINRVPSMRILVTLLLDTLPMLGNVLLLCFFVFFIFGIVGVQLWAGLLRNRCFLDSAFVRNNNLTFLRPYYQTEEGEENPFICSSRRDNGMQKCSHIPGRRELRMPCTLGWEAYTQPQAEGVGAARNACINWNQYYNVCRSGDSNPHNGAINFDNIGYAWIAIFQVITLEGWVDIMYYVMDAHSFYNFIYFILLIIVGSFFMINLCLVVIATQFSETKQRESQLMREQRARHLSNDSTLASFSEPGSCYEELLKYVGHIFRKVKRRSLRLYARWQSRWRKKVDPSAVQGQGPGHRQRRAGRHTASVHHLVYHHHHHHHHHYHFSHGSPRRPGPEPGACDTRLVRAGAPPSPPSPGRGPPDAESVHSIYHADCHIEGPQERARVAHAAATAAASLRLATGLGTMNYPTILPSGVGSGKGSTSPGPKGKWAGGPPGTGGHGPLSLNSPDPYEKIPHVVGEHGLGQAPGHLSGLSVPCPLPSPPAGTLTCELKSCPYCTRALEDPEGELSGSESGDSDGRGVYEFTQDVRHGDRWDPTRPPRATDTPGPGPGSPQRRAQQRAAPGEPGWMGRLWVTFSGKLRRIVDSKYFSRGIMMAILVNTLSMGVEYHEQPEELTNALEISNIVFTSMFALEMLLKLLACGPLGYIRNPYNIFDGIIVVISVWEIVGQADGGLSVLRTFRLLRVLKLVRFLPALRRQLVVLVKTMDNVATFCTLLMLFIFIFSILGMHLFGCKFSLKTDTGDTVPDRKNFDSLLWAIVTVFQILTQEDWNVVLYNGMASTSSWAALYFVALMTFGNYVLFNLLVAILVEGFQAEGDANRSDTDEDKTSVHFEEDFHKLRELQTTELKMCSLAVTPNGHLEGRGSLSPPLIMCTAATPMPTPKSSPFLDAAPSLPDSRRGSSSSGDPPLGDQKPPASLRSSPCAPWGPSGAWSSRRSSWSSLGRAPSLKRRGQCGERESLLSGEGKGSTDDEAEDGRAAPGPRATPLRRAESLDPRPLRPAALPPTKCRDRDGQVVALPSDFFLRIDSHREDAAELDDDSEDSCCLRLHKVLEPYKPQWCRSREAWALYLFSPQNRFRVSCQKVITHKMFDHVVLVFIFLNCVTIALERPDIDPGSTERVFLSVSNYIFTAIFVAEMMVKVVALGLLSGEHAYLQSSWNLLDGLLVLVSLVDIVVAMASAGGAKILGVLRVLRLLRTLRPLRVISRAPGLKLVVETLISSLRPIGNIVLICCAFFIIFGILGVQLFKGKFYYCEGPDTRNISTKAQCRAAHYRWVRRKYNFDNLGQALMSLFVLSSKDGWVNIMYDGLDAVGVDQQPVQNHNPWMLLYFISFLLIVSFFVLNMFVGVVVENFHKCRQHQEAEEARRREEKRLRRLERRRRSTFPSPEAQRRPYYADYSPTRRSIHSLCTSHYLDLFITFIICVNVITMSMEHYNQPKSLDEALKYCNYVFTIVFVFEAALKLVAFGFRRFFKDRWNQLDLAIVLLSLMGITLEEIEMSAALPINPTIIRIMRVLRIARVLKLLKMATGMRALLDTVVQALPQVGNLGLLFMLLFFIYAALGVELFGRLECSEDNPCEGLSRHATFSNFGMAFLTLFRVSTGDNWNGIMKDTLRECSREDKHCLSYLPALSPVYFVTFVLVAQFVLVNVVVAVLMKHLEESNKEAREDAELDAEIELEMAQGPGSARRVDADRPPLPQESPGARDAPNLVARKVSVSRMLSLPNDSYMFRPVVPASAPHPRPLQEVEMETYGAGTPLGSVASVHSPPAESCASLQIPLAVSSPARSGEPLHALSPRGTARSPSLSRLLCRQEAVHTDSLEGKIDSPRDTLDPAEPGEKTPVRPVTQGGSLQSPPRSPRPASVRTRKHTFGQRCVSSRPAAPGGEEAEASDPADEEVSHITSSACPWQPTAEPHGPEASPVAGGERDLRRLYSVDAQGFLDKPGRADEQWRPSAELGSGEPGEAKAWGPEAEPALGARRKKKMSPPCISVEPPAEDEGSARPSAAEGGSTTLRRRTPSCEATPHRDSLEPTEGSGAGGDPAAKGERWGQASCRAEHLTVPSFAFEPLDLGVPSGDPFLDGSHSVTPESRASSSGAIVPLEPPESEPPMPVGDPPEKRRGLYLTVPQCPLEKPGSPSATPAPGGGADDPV

[7] = target: T6, Carboxy-terminal domain RNA polymerase II polypeptide A small phosphatase 1 (Homo sapiens, UniProt Q9GZU7); experiment: CTDSP1 inhibitors, concentration-response, biochemical, absorbance readout, ultra-high-throughput screen actives (AID 540297); type: functional
T6 sequence (Q9GZU7 whole entry): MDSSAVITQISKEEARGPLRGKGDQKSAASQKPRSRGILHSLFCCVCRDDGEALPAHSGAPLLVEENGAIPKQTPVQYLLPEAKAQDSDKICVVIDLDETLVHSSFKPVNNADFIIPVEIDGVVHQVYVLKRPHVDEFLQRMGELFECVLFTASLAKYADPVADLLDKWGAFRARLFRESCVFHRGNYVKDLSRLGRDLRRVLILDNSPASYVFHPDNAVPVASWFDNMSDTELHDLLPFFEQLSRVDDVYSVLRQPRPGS

[8] = target: Eukaryotic translation initiation factor 4E (Mus musculus, UniProt P63073); experiment: blockers of eIF4G binding by eIF4E – biochemical, TR-FRET, dose response (AID 855); type: functional;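 also: potency for disrupting eIF4E binding to eIF4GI seen as loss of FRET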
Eukaryotic translation initiation factor 4E, sequence (P63073 whole entry): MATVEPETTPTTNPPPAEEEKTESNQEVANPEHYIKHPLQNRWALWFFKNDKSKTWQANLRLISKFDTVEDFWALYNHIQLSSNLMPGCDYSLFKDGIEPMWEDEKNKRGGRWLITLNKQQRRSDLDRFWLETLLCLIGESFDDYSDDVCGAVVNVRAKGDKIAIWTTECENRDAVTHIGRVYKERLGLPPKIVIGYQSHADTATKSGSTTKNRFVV

Cytochrome P450 3A4 = Cytochrome P450 3A4 (Homo sapiens, UniProt P08684); conditions: Potency;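 also: confirmatory qHTS run detecting inhibitors and substrates of CYP3A4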
Cytochrome P450 3A4, sequence (P08684 whole entry): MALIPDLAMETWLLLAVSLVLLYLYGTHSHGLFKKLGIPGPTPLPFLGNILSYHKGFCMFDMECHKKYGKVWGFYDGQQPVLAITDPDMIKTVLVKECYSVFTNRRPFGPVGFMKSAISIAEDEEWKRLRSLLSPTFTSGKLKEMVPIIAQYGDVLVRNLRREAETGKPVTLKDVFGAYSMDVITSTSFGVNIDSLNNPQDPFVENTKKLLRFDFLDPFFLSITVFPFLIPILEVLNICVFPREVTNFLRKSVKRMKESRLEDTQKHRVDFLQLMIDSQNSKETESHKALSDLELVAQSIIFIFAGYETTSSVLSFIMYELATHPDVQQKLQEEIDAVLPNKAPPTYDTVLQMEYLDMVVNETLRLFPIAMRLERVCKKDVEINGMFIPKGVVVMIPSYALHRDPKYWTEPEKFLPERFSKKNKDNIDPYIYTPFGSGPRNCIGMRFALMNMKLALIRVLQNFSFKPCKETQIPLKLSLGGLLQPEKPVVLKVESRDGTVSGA

[9] = target: FAD-linked sulfhydryl oxidase ALR (Homo sapiens, UniProt P55789); experiment: ALR-catalysed DTT oxidation blockers – biochemical, H2O2 detection, luminescence, cherry-pick, dose response (AID 493248)
FAD-linked sulfhydryl oxidase ALR, sequence (P55789 whole entry): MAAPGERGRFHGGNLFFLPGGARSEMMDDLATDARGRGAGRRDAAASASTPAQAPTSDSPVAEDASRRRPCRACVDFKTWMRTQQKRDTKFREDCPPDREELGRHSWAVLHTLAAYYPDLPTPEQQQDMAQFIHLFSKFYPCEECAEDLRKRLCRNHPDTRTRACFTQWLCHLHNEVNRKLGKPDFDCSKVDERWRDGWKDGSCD

[10] = target: Melanin-concentrating hormone receptor 1 (Homo sapiens, UniProt Q99705); experiment: Fluorescence-based counterscreen for antagonists of the G-protein coupled receptor 7 (GPR7): cell-based high throughput dose response assay to identify antagonists of the melanin-concentrating hormone receptor 1 (MCHR1).; type: functional
Melanin-concentrating hormone receptor 1, sequence (Q99705 whole entry): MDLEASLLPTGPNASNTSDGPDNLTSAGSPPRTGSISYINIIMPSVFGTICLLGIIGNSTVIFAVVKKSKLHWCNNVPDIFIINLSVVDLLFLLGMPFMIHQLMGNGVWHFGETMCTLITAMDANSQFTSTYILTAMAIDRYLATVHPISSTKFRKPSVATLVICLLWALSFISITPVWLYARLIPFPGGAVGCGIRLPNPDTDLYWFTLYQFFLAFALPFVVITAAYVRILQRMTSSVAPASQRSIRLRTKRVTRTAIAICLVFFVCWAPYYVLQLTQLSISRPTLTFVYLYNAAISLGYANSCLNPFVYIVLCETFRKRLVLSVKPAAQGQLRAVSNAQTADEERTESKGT

Cytochrome P450 2C9, sequence (P11712 whole entry): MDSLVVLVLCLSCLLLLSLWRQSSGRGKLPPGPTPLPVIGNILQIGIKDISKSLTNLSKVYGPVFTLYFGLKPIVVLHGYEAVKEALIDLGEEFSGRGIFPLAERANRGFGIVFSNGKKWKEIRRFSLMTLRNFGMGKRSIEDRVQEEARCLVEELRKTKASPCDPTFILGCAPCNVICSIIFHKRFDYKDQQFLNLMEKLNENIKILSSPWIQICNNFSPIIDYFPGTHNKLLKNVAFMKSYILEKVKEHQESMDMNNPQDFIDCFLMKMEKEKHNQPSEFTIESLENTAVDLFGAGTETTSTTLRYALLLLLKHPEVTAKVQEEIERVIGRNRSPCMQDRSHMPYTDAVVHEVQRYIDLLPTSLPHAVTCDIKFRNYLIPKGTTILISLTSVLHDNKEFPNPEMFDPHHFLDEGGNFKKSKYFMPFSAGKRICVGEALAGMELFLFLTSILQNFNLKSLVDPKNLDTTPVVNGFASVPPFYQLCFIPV

AC50 (Cytochrome P450 2C9): 3.98 µM (inconclusive)
IC50 [1]: 3.93 µM (active)
IC50 (Caspase-3): 23.1 µM (active)
IC50 [2]: 6 µM (active)
SMILES: COc1ccc(/C=C/C(=O)c2ccccc2O)cc1
IC50 [3]: 10.6 µM (active)

EC50 [4]: > 53 µM (inactive)
IC50 [5]: > 47.1 µM (inactive)
EC50 [6]: 7.96 µM (active)
SMILES: Cc1ccccc1NC(=O)c1ccc(-c2ccc(Cl)cc2Cl)o1

IC50 [7]: 4.16 µM (active)
IC50 [8]: 50 µM (inactive)
SMILES: Cc1ccc([N+](=O)[O-])cc1NC(=O)Cc1cccs1

EC50 [6]: 4.88 µM (active)
SMILES: Cc1nn(Cc2c(F)c(F)c(F)c(F)c2F)c(C)c1NC(=O)c1ccc(COc2ccc(F)cc2)o1

EC50 [6]: 5.43 µM (active)
SMILES: FC(F)(F)c1cc(C(F)(F)F)c2ccc(N3CCN(c4ccc(Cl)cc4)CC3)nc2n1

AC50 (Cytochrome P450 2C9): 3.98 µM (inconclusive)
AC50 (Cytochrome P450 3A4): 3.16 µM (inconclusive)
SMILES: CC1CCC2C(=O)OC(CO)CN2C1c1ccc(Br)cc1 (stereo unspecified)

AC50 [9]: 8.49 µM (active)
IC50 [10]: 21.5 µM (not active)
SMILES: CCn1c(CNc2ccc(Cl)cc2)nnc1SCCN1CCCCC1
